Data on 1 compound can be found in paper doi:10.1101/2025.11.03.686228, “Design of Tissue-Selective PROTACs Through Recruiting E3 Ligase Scaffolding Protein MAGEA11” (bioRxiv, 2025).

The test concerns the target T1, BRD4 (first bromodomain, BRD4-BD1) (Homo sapiens, UniProt O60885).
T1 construct: BRD4-BD1 (first bromodomain)
Kind of test: fluorescence polarization competitive inhibition assay. Type of test: binding. On the technique in general: In fluorescence polarisation assays a small probe gives low polarisation when free and higher when bound to something large.

A word on the Ki: it is a measure of affinity in units of concentration, obtained from inhibition or displacement. A lower Ki goes with higher affinity. The compound `Cc1sc2c(c1C)C(c1ccc(Cl)cc1)=N[C@@H](CC(=O)NCCOCCOCCOCCOCCOCCOCCOCCOCc1cn(-c3ccc4c(NCCCNCc5ccc6[nH]ccc6c5)ccnc4c3)nn1)c1nnc(C)n1-2` [105B] displayed an inhibition constant Ki of 14.9 ± 0.97 nM.
